Converted amounts (≈) assume the structure as drawn.
Key:
Assay in all cases: Minimal inhibitory concentration, agar dilution method
Type in all cases: cell-based
[1] = tested on: Klebsiella pneumoniae PCI602
Description: (§1) When determined according to the agar dilution method, the penicillins (I) afford the minimal inhibitory concentrations against test microorganisms as shown in Table 2.

[2] = tested on: Staphylococcus aureus 209P
Description: as §1

[3] = tested on: Escherichia coli NIHJ
Description: as §1

[4] = tested on: Pseudomonas aeruginosa 104
Description: as §1

[5] = tested on: Proteus miravilis GN2425
[6] = tested on: Proteus vulgaris HV19

Row | Structure (SMILES) | MIC [1] | MIC [2] | MIC [3] | MIC [4] | MIC [5] | MIC [6]
1 | COc1nc(OC)c2ncc(C(=O)NC(C(=O)NC3C(=O)N4C3SC(C)(C)C4C(=O)O)c3cccc(N)c3)c(O)c2n1 (stereo not drawn) [Example 57] | 6.25 µg/mL (≈ 10.5 µM) | 1.56 µg/mL (≈ 2.61 µM) | 0.78 µg/mL (≈ 1.31 µM) | 1.56 µg/mL (≈ 2.61 µM) | 1.56 µg/mL (≈ 2.61 µM) | 0.025 µg/mL (≈ 0.0418 µM)
2 | CC1(C)SC2C(NC(=O)C(NC(=O)c3cnc4nc(N)ncc4c3O)c3cccc(N)c3)C(=O)N2C1C(=O)O (stereo not drawn) [Example 42] | 12.5 µg/mL (≈ 22.6 µM) | 1.56 µg/mL (≈ 2.82 µM) | 3.13 µg/mL (≈ 5.66 µM) | 3.13 µg/mL (≈ 5.66 µM) | 1.56 µg/mL (≈ 2.82 µM) | 0.05 µg/mL (≈ 0.0905 µM)
3 | CC1(C)SC2C(NC(=O)C(NC(=O)c3cnc4ccc(N)nc4c3O)c3cccc(N)c3)C(=O)N2C1C(=O)O (stereo not drawn) [Example 29] | 6.25 µg/mL (≈ 11.3 µM) | 1.56 µg/mL (≈ 2.83 µM) | 0.78 µg/mL (≈ 1.41 µM) | 0.78 µg/mL (≈ 1.41 µM) | 0.78 µg/mL (≈ 1.41 µM) | 0.025 µg/mL (≈ 0.0453 µM)
4 | COc1ccc(C(NC(=O)c2cnc3cn[nH]c3c2O)C(=O)NC2C(=O)N3C2SC(C)(C)C3C(=O)O)cc1 (stereo not drawn) [Example 34] | 12.5 µg/mL (≈ 23.1 µM) | 0.78 µg/mL (≈ 1.44 µM) | 3.13 µg/mL (≈ 5.79 µM) | 3.13 µg/mL (≈ 5.79 µM) | 6.25 µg/mL (≈ 11.6 µM) | 0.1 µg/mL (≈ 0.185 µM)
5 | CC1(C)SC2C(NC(=O)C(NC(=O)c3cnc4nc(N5CCCC5)ncc4c3O)c3cccc(N)c3)C(=O)N2C1C(=O)O (stereo not drawn) [Example 53] | 6.25 µg/mL (≈ 10.3 µM) | 1.56 µg/mL (≈ 2.57 µM) | 3.13 µg/mL (≈ 5.16 µM) | 3.13 µg/mL (≈ 5.16 µM) | 3.13 µg/mL (≈ 5.16 µM) | 0.025 µg/mL (≈ 0.0412 µM)
6 | CC1(C)SC2C(NC(=O)C(NC(=O)c3cnc4c5c(ccc4c3O)CCC5)c3cccc(N)c3)C(=O)N2C1C(=O)O (stereo not drawn) [Example 50] | 12.5 µg/mL (≈ 21.7 µM) | 0.78 µg/mL (≈ 1.35 µM) | 3.13 µg/mL (≈ 5.44 µM) | 3.13 µg/mL (≈ 5.44 µM) | 12.5 µg/mL (≈ 21.7 µM) | 0.39 µg/mL (≈ 0.677 µM)
7 | CCOC(=O)Oc1c(C(=O)N[C@@H](C(=O)N[C@@H]2C(=O)N3[C@@H]2SC(C)(C)[C@@H]3C(=O)O)c2ccc(OC)cc2)cnc2cccnc12 [Example 3, D-α-(4-ethoxycarbonyloxy-1,5-naphthyridine-3-carboxamido)-p-methoxybenzylpenicillin] | 12.5 µg/mL (≈ 20 µM) | 1.56 µg/mL (≈ 2.5 µM) | 3.13 µg/mL (≈ 5.02 µM) | 3.13 µg/mL (≈ 5.02 µM) | 6.25 µg/mL (≈ 10 µM) | 0.1 µg/mL (≈ 0.16 µM)
8 | COc1ccc2c(O)c(C(=O)NC(C(=O)N[C@@H]3C(=O)N4[C@@H]3SC(C)(C)[C@@H]4C(=O)O)c3cccc(N)c3)cnc2c1 (stereo partly drawn) [Example 20] | 6.25 µg/mL (≈ 11.1 µM) | 0.78 µg/mL (≈ 1.38 µM) | 3.13 µg/mL (≈ 5.53 µM) | 3.13 µg/mL (≈ 5.53 µM) | 3.13 µg/mL (≈ 5.53 µM) | 0.1 µg/mL (≈ 0.177 µM)
9 | COc1ccc2ncc(C(=O)NC(C(=O)N[C@@H]3C(=O)N4[C@@H]3SC(C)(C)[C@@H]4C(=O)O)c3cccc(N)c3)c(O)c2n1 (stereo partly drawn) [Example 23] | 6.25 µg/mL (≈ 11 µM) | 1.56 µg/mL (≈ 2.75 µM) | 0.78 µg/mL (≈ 1.38 µM) | 1.56 µg/mL (≈ 2.75 µM) | 1.56 µg/mL (≈ 2.75 µM) | 0.05 µg/mL (≈ 0.0882 µM)
10 | CSc1nc2ccc3ncc(C(=O)NC(C(=O)NC4C(=O)N5C4SC(C)(C)C5C(=O)O)c4cccc(N)c4)c(O)c3c2s1 (stereo not drawn) [Example 51] | 6.25 µg/mL (≈ 9.78 µM) | 0.78 µg/mL (≈ 1.22 µM) | 3.13 µg/mL (≈ 4.9 µM) | 3.13 µg/mL (≈ 4.9 µM) | 3.13 µg/mL (≈ 4.9 µM) | 0.2 µg/mL (≈ 0.313 µM)
11 | CC1(C)SC2C(NC(=O)C(NC(=O)c3cnc4cccnc4c3S)c3cccc(N)c3)C(=O)N2C1C(=O)O (stereo not drawn) [Example 37] | 12.5 µg/mL (≈ 22.6 µM) | 1.56 µg/mL (≈ 2.82 µM) | 1.56 µg/mL (≈ 2.82 µM) | 0.78 µg/mL (≈ 1.41 µM) | 1.56 µg/mL (≈ 2.82 µM) | 0.05 µg/mL (≈ 0.0905 µM)
12 | CCOC(=O)Oc1c(C(=O)NC(C(=O)NC2C(=O)N3C2SC(C)(C)C3C(=O)O)c2ccc(OC)cc2)cnc2ccc(C)nc12 (stereo not drawn) [Example 46] | 12.5 µg/mL (≈ 19.6 µM) | 1.56 µg/mL (≈ 2.45 µM) | 3.13 µg/mL (≈ 4.91 µM) | 3.13 µg/mL (≈ 4.91 µM) | 12.5 µg/mL (≈ 19.6 µM) | 0.1 µg/mL (≈ 0.157 µM)
13 | CC1(C)S[C@@H]2[C@H](NC(=O)C(NC(=O)c3cnc4ccc(O)nc4c3O)c3cccc(N)c3)C(=O)N2[C@H]1C(=O)O (stereo partly drawn) [Example 30] | 6.25 µg/mL (≈ 11.3 µM) | 1.56 µg/mL (≈ 2.82 µM) | 0.78 µg/mL (≈ 1.41 µM) | 1.56 µg/mL (≈ 2.82 µM) | 1.56 µg/mL (≈ 2.82 µM) | 0.05 µg/mL (≈ 0.0905 µM)
14 | Cc1ccc2ncc(C(=O)NC(C(=O)N[C@@H]3C(=O)N4[C@@H]3SC(C)(C)[C@@H]4C(=O)O)c3ccc(N)cc3)c(O)c2n1 (stereo partly drawn) [Example 21] | 3.13 µg/mL (≈ 5.68 µM) | 1.56 µg/mL (≈ 2.83 µM) | 0.78 µg/mL (≈ 1.42 µM) | 0.78 µg/mL (≈ 1.42 µM) | 1.56 µg/mL (≈ 2.83 µM) | 0.025 µg/mL (≈ 0.0454 µM)
15 | CC1(C)SC2C(NC(=O)C(NC(=O)c3cnc4ccc(N5CCCC5)nc4c3O)c3ccc(N)cc3)C(=O)N2C1C(=O)O (stereo not drawn) [Example 52] | 6.25 µg/mL (≈ 10.3 µM) | 1.56 µg/mL (≈ 2.58 µM) | 0.78 µg/mL (≈ 1.29 µM) | 1.56 µg/mL (≈ 2.58 µM) | 1.56 µg/mL (≈ 2.58 µM) | 0.05 µg/mL (≈ 0.0826 µM)
16 | COc1ccc(C(NC(=O)c2cnc3ccc(C)nc3c2O)C(=O)NC2C(=O)N3C2SC(C)(C)C3C(=O)O)cc1 (stereo not drawn) [Example 44] | 12.5 µg/mL (≈ 22.1 µM) | 1.56 µg/mL (≈ 2.76 µM) | 3.13 µg/mL (≈ 5.53 µM) | 3.13 µg/mL (≈ 5.53 µM) | 6.25 µg/mL (≈ 11.1 µM) | 0.05 µg/mL (≈ 0.0884 µM)
17 | CC(=O)Nc1ccc2ncc(C(=O)NC(C(=O)N[C@@H]3C(=O)N4[C@@H]3SC(C)(C)[C@@H]4C(=O)O)c3cccc(N)c3)c(O)c2n1 (stereo partly drawn) [Example 26] | 6.25 µg/mL (≈ 10.5 µM) | 1.56 µg/mL (≈ 2.63 µM) | 0.78 µg/mL (≈ 1.31 µM) | 0.78 µg/mL (≈ 1.31 µM) | 0.78 µg/mL (≈ 1.31 µM) | 0.025 µg/mL (≈ 0.0421 µM)

Reference: patent US3992371A, “Penicillins substituted with heterocyclic and substituted phenyl groups” (Sumitomo Chemical Company, Limited, priority 1973, dated 1976)
